From patent US20230287510A1, “COMPOSITIONS, PANELS, AND METHODS FOR CHARACTERIZING CHRONIC LYMPHOCYTIC LEUKEMIA” (The Broad Institute, Inc., priority 2020, published 2023)
*1 amine or outer side, *2 acyl side, *3 side chain or, on linkers, in order; H or OH if unused. Where a SMILES comes first, the peptide text is derived from it. Bridges are numbered along the chain shown (N, C = ends). Roman numbers before positions name the chains, in order. [ ]: non-standard residue; d: D form. Actinocin(9to1) = Cc1c2oc3c(C)ccc(C(=O)[*:1])c3nc-2c(C(=O)[*:2])c(N)c1=O; NMeV = CN[C@H](C(=O)O)C(C)C; Sar = CNCC(=O)O

System: chronic lymphocytic leukemia (CLL) samples classified by expression subtype (Ec-i, EC-m1, EC-m2, EC-m3, EC-m4, EC-o, EC-u1, EC-u2)
Experiment: Ex-vivo drug sensitivity (percent viability) of CLL samples compared between expression subtypes (ECs); on Mean viability in the EC: test concentration or dose not given here; on Mean viability in the other ECs: test concentration or dose not given here
Assay type: cell-based
Description: An analysis was completed to determine whether the expression clusters (ECs) can be used to predict the resistance and sensitivity of different chronic lymphocytic leukemias to various drugs. […] The expression subtypes were then used with the drug sensitivity data to compare the percent […] of samples in each expression cluster to the percent viability of samples in all other expression clusters.

| Compound | Mean viability in the other ECs (all ECs other than EC-u1) | Drug response associated with the EC (expression cluster EC-u1) | Mean viability in the EC (expression cluster EC-u1) | Mean viability in the other ECs (all ECs other than EC-m3) | Mean viability in the other ECs (all ECs other than EC-m4) | Drug response associated with the EC (expression cluster EC-m3) | Mean viability in the EC (expression cluster EC-m3) | Drug response associated with the EC (expression cluster EC-m4) | Mean viability in the EC (expression cluster EC-m4) | further results |
| --- | --- | --- | --- | --- | --- | --- | --- | --- | --- | --- |
| Cc1c2oc3c(C)ccc(C(=O)N[C@@H]4C(=O)N[C@H](C(C)C)C(=O)N5CCC[C@H]5C(=O)N(C)CC(=O)N(C)[C@@H](C(C)C)C(=O)O[C@@H]4C)c3nc-2c(C(=O)N[C@@H]2C(=O)N[C@H](C(C)C)C(=O)N3CCC[C@H]3C(=O)N(C)CC(=O)N(C)[C@@H](C(C)C)C(=O)O[C@@H]2C)c(N)c1=O [actinomycin D] (I: T[dV]P[Sar][NMeV] / II: T[dV]P[Sar][NMeV]; ester I:1-I:C, II:1-II:C; linker I:N-II:N via Actinocin(9to1)) | 0.27 | Resistant | 0.37 |  |  |  |  |  |  |  |
| C/C=C(/C)C(=O)O[C@H]1C(C)=C2[C@H]([C@@H]1OC(=O)CCCCCCC)[C@@](C)(OC(C)=O)C[C@H](OC(=O)CCC)[C@@]1(O)[C@H]2OC(=O)[C@@]1(C)O [thapsigargin] |  |  |  |  |  |  |  |  |  | Drug response associated with the EC (expression cluster EC-i): Sensitive; Drug response associated with the EC (expression cluster EC-u2): Resistant |
| CO[C@H]1C[C@@H]2CC[C@@H](C)[C@@](O)(O2)C(=O)C(=O)N2CCCC[C@H]2C(=O)O[C@H]([C@H](C)C[C@@H]2CC[C@@H](OCCO)[C@H](OC)C2)CC(=O)[C@H](C)/C=C(\C)[C@@H](O)[C@@H](OC)C(=O)[C@H](C)C[C@H](C)/C=C/C=C/C=C/1C [everolimus] | 0.95 | Resistant | 0.99 |  |  |  |  |  |  |  |
| CC[C@H](Nc1ncnc2nc[nH]c12)c1nc2cccc(F)c2c(=O)n1-c1ccccc1 [idelalisib] | 0.96 | Sensitive | 0.90 | 0.93 | 0.93 | Resistant | 1.02 | Resistant | 0.99 | Mean viability in the other ECs (all ECs other than EC-u2): 0.95; Drug response associated with the EC (expression cluster EC-u2): Sensitive; Mean viability in the EC (expression cluster EC-u2): 0.79 |
| CC1(C)CCC(c2ccc(Cl)cc2)=C(CN2CCN(c3ccc(C(=O)NS(=O)(=O)c4ccc(N[C@H](CCN5CCOCC5)CSc5ccccc5)c(S(=O)(=O)C(F)(F)F)c4)cc3)CC2)C1 [navitoclax] | 0.82 | Resistant | 0.89 |  |  |  |  |  |  |  |
| CN1CCC(CNc2ccc3ncc(-c4cccc(OC(F)(F)F)c4)n3n2)CC1 [SGI-1776] | 1.04 | Sensitive | 1.01 |  |  |  |  |  |  | Mean viability in the other ECs (all ECs other than EC-m1): 1.03; Drug response associated with the EC (expression cluster EC-m1): Resistant; Mean viability in the EC (expression cluster EC-m1): 1.09 |
| NC1(c2ccc(-c3nc4ccn5c(=O)[nH]nc5c4cc3-c3ccccc3)cc2)CCC1 [MK-2206] | 1.02 | Sensitive | 0.98 |  | 1.00 |  |  | Resistant | 1.04 | Mean viability in the other ECs (all ECs other than EC-m1): 1.00; Drug response associated with the EC (expression cluster EC-m1): Resistant; Mean viability in the EC (expression cluster EC-m1): 1.07 |
| O=C(Nc1cccc(Nc2ncc(Br)c(NCCc3cnc[nH]3)n2)c1)N1CCCC1 [BX912] | 1.07 | Sensitive | 1.05 |  |  |  |  |  |  |  |
| CN(C)C/C=C/C(=O)Nc1cc2c(Nc3ccc(F)c(Cl)c3)ncnc2cc1O[C@H]1CCOC1 [afatinib] |  |  |  | 1.08 | 1.09 |  | 1.03 |  | 1.02 |  |
| C[C@H](Nc1ncnc2[nH]cnc12)c1cc2cccc(Cl)c2c(=O)n1-c1ccccc1 [duvelisib] | 0.90 | Sensitive | 0.85 | 0.88 | 0.87 | Resistant | 0.95 | Resistant | 0.94 | Mean viability in the other ECs (all ECs other than EC-u2): 0.89; Drug response associated with the EC (expression cluster EC-u2): Sensitive; Mean viability in the EC (expression cluster EC-u2): 0.73 |
| dasatinib | 0.79 | Sensitive | 0.64 | 0.72 | 0.70 | Resistant | 0.87 | Resistant | 0.89 | Mean viability in the other ECs (all ECs other than EC-m1): 0.73; Mean viability in the other ECs (all ECs other than EC-u2): 0.75; Drug response associated with the EC (expression cluster EC-m1): Resistant; Mean viability in the EC (expression cluster EC-m1): 0.90; Drug response associated with the EC (expression cluster EC-u2): Sensitive; Mean viability in the EC (expression cluster EC-u2): 0.46 |
| fludarabine |  |  |  | 0.93 |  | Sensitive | 0.82 |  |  |  |
| COCCn1c2c([n+](Cc3cnccn3)c1C)C(=O)c1ccccc1C2=O [YM155] | 0.64 | Sensitive | 0.53 |  |  |  |  |  |  |  |
| COc1cc(N2CCC(N3CCN(C)CC3)CC2)ccc1Nc1ncc(Cl)c(Nc2ccccc2S(=O)(=O)C(C)C)n1 [TAE684] | 1.03 | Sensitive | 0.98 |  | 1.01 |  |  | Resistant | 1.04 | Mean viability in the other ECs (all ECs other than EC-m1): 1.01; Drug response associated with the EC (expression cluster EC-m1): Resistant; Mean viability in the EC (expression cluster EC-m1): 1.07 |
| NC(=O)Nc1cc(-c2cccc(F)c2)sc1C(=O)N[C@H]1CCCNC1 [AZD7762] | 0.88 | Sensitive | 0.74 | 0.82 | 0.80 | Resistant | 0.95 | Resistant | 0.98 | Mean viability in the other ECs (all ECs other than EC-u2): 0.85; Drug response associated with the EC (expression cluster EC-u2): Sensitive; Mean viability in the EC (expression cluster EC-u2): 0.51 |
| CC1(C)CCC(CN2CCN(c3ccc(C(=O)NS(=O)(=O)c4ccc(NCC5CCOCC5)c([N+](=O)[O-])c4)c(Oc4cnc5[nH]ccc5c4)c3)CC2)=C(c2ccc(Cl)cc2)C1 [venetoclax] | 0.45 | Resistant | 0.54 |  |  |  |  |  |  |  |
| COc1cc(Nc2ncc(F)c(Nc3ccc4c(n3)NC(=O)C(C)(C)O4)n2)cc(OC)c1OC [tamatinib] | 1.06 | Sensitive | 1.00 | 1.04 | 1.03 | Resistant | 1.09 | Resistant | 1.09 | Mean viability in the other ECs (all ECs other than EC-i): 1.03; Drug response associated with the EC (expression cluster EC-i): Resistant; Mean viability in the EC (expression cluster EC-i): 1.07 |
| Cn1cnc2c(F)c(Nc3ccc(Br)cc3Cl)c(C(=O)NOCCO)cc21 [selumetinib] | 0.94 | Sensitive | 0.91 | 0.93 | 0.92 | Resistant | 0.97 | Resistant | 0.97 | Mean viability in the other ECs (all ECs other than EC-i): 0.92; Mean viability in the other ECs (all ECs other than EC-u2): 0.94; Drug response associated with the EC (expression cluster EC-i): Resistant; Mean viability in the EC (expression cluster EC-i): 0.97; Drug response associated with the EC (expression cluster EC-u2): Sensitive; Mean viability in the EC (expression cluster EC-u2): 0.79 |
| O=C(Cc1ccc(-c2ccc(OCCN3CCOCC3)cc2)cn1)NCc1ccccc1 [KX2-391] | 0.91 | Sensitive | 0.86 |  |  |  |  |  |  |  |
| C/C1=C\[C@@H](C)C/C=C/[C@H]2[C@@H]3O[C@]3(C)[C@@H](C)[C@H]3[C@H](Cc4c[nH]c5ccccc45)NC(=O)[C@]32C(=O)/C=C/C(=O)[C@@H]1O [chaetoglobosin A] |  |  |  | 1.07 |  | Sensitive | 0.98 |  |  |  |
| CC[C@H]1CN2CCc3cc(OC)c(OC)cc3[C@@H]2C[C@@H]1C[C@H]1NCCc2cc(O)c(OC)cc21 [cephaeline] |  |  |  |  |  |  |  |  |  | Mean viability in the other ECs (all ECs other than EC-u2): 0.82; Mean viability in the EC (expression cluster EC-u2): 0.72 |
| O=C(CCCCCCC(=O)Nc1ccccc1)NO [vorinostat] |  |  |  |  |  | Sensitive |  |  |  |  |
| CC(C)(C)c1cnc(CSc2cnc(NC(=O)C3CCNCC3)s2)o1 [SNS-032] |  |  |  |  | 0.73 |  |  | Sensitive | 0.66 |  |
| CC(C)(C)c1ccc(S(=O)(=O)/C=C/C#N)cc1 [BAY 11-7085] |  | Sensitive |  |  |  |  |  |  |  | Drug response associated with the EC (expression cluster EC-i): Resistant |
| Cn1cc(-c2[nH]c3cc(NC(=O)[C@H](N)C4CCCCC4)cc4c3c2C=NNC4=O)cn1 [PF 477736] |  | Sensitive |  |  |  | Resistant |  | Resistant |  | Drug response associated with the EC (expression cluster EC-m1): Resistant |
| Cl.NC(=O)c1cnc(N[C@@H]2CCCC[C@@H]2N)nc1Nc1cccc(-n2nccn2)c1 [PRT062607 HCl] |  | Sensitive |  |  |  | Resistant |  | Resistant |  | Drug response associated with the EC (expression cluster EC-i): Resistant; Drug response associated with the EC (expression cluster EC-u2): Sensitive |
